Holding throughout (format): cell-based
Assay [1] concerns human breast cancer (MCF-7) cell line. The assay can be described thus: Inhibition of tumour cell proliferation in vitro ([3H]thymidine incorporation), MCF-7. The following applies: MCF7, MCF-7 cells, cultured 24 hours with compound, DNA synthesis by [3H]thymidine incorporation. As to the method:
(§1) The inhibition of tumour cell proliferation was studied using different types of human cancer cell lines. The cell lines under investigation were small cell lung carcinoma (NYH), non small cell lung carcinoma (NCI-H460), and breast cancer (MCF-7) using the following general procedure:
(§2) The cells were cultured in vitro for 24 hours in the presence of the compound under investigation. DNA synthesis was measured by incorporation of [3H]thymidine, and the median inhibitory concentrations (IC50) of the compounds were calculated.

Assay [2] relates to human small cell lung carcinoma (NYH) cell line. The assay can be described thus: Inhibition of tumour cell proliferation in vitro ([3H]thymidine incorporation), NYH. The conditions noted are these: NYH cells, cultured 24 hours with compound, DNA synthesis by [3H]thymidine incorporation. As to the method: as §1, §2
Assay [3] has as its system human non small cell lung cancer (NCI-H460) cell line. The experiment in a line: Inhibition of tumour cell proliferation in vitro ([3H]thymidine incorporation), NCI-H460. The following applies: NCI-H460 cells, cultured 24 hours with compound, DNA synthesis by [3H]thymidine incorporation. As to the method: as §1, §2
In general terms: Dividing cells build labelled thymidine or BrdU into new DNA.

The structures appear in SMILES notation.

The IC50 is the concentration needed to halve the response being measured. With `N#CNC(=Nc1ccncc1)NCCCCCCNC(=O)c1ccccc1` [Example No. 2, N-(6-Benzoylaminohexyl)-N′-cyano-N″-4-pyridylguanidine], the IC50 in assay [1] came out at 57 nM; in assay [2], 6.2 nM; in assay [3], 66 nM.

Regarding `N#CNC(=Nc1ccncc1)NCCCCCCOC(=O)c1ccc(Cl)cc1` [Example No. 4, N-(6-(4-Chlorobenzoyloxy)hexyl)-N′-cyano-N″-4-pyridylguanidine], the IC50 in assay [1] came out at 2.2 nM; in assay [2], 1.7 nM.

The record behind these values is patent publication US6346541B1, “Cyanoguanidines as cell proliferation inhibitors” (Leo Pharmaceutical Products Ltd. A/S, priority 1997, dated 2002).
